Values quoted from earlier work in patent publication US10226042B2, “Synergistic pre-emergent and post-emergent weed control compositions and methods of use thereof” (BAYER INTELLECTUAL PROPERTY GMBH, priority 2009, dated 2019).

Conditions: stated in words, no test described

Structure (SMILES) | water solubility
O=C(O)COc1ccc(Cl)cc1Cl [2,4-D] | water soluble
COc1c(Cl)ccc(Cl)c1C(=O)O [dicamba] | water soluble
